Laboratory results from patent US8841269B2, “Polynucleotides for use in treating and diagnosing cancers” (Creighton University, priority 2010, dated 2014).
Entries after “also recorded” stand apart in the source; their conditions may differ.

Experiments:
Format in all cases: cell-based, human
[1] = Real-time PCR of let-7 levels after mimic transfection (Example 2)
Method: To analyze mature let-7 miRNAs with real-time PCR, total RNA was isolated from the cell lines using mirVana miRNA isolation kit (Ambion Inc., Austin, Tex.) or from FFPE tissues using the miRNeasy FFPE Kit (Qiagen, Valencia, Calif.) following the manufacturer's instructions. We collected FFPE breast tissues from 13 benign, 16 ductal carcinomas in situ (DCIS), and 15 invasive ductal carcinomas (IDC), all of which were prepared as 50 μm thick sheets. The benign breast tissues were from surgical resections of abnormal breast lesions with non-neoplastic phenotypes such as calcification, fibrocystic changes or stromal fibrosis. cDNA was synthesized using 100 ng total RNA in a reaction volume of 15 μL and following the protocol of Taqman microRNA reverse transcription kit (Applied Biosystems, Foster City, Calif.). After 15 dilution, 9 μl, cDNA mixture was used for real-time PCR in 20 μL reaction volume, including 10 μL of TaqMan universal PCR master mix (no ampErase UNG) and 1 μL Taqman probe (Applied Biosystems, Foster City, Calif.). Real-time PCR was performed on 7900HT realtime PCR instrument (Applied Biosystems). PCR was initiated by two holds of 52° C. 2 min and 94° C. 10 min each, followed by 40 cycles of 15 s at 95° C. and 1 min at 60° C. The level of each miRNA was expressed following the 2^−ΔCt method using the small nuclear RNA RNU48 as the internal reference.
(§1) Let-7 miRNA or negative control #1 miRNA of 60 nmol/L (Ambion, Austin, Tex.) was transfected into cells with the siPORT NeoFX reagent (Ambion, Austin, Tex.) following the manufacturer's protocol.

[2] = test system: ER-α36 mRNA; assay: Real-time PCR of ER-α36 mRNA after transfection; conditions: for ER-α36 mRNA expression: MDA-MB-231, mimics, vs negative control miRNA; for ER-α36 mRNA level: MDA-MB-231, two days post transfection
Method: To assess the expression levels of ER-α66 and ER-α36 with real-time PCR, total RNA was extracted using Trizol reagent (Invitrogen, Carsbad, Calif.). One microgram RNA was used for cDNA synthesis with the SuperScript III first-strand synthesis system (Invitrogen, Carsbad, Calif.). After 10 dilution, 4 μL cDNA was used in 20 μL reaction volume, which includes 4 μL of 1.5 μmol/L primers, 2 μL of 2 μmol/L probes, and 10 μL TaqMan universal PCR master mix with ampErase UNG (Applied Biosystems). The reaction condition was the same as miRNA real-time PCR. β-Actin was the internal control (Applied Biosystems, Foster City, Calif.). The primers for ER-α66 are: 5′-GCGGCCACGGACCAT (forward) (SEQ ID NO:20); 5′-[…] (SEQ ID NO:21) (reverse); 5′-FAM-[…]-TAMRA-3′ (probe) (SEQ ID NO:22). The primers for ER-α36 are: 5′-[…] (forward) (SEQ ID NO:23); 5′-[…] (reverse) (SEQ ID NO:24); 5′-[…] TAMRA-3′ (probe) (SEQ ID NO:43).
as §1

[3] = test system: ERK1/2; assay: Estrogen induced ERK1/2 activation (phos-ERK Western blot) in MDA-MB-231; conditions: MDA-MB-231, 10 nmol/L E2 after estrogen starvation
Method: After mixed with gel-loading buffer and boiled for 5 minutes, the protein samples were separated with 10% SDS-PAGE and transferred to a PVDF membrane (Millipore, Billerica, Mass.). The blots were probed with specific first antibodies and appropriate second antibodies. The blots were visualized with enhanced chemiluminescence (ECL) reagents (Pierce, Minneapolis, Minn.) and documented with a Fluor Chem FC2 (Alpha Innotech, Santa Clara, Calif.) image system. Gel density was quantified with Quantity One and expressed as a relative value against β-actin. The anti-ERK1/2 (#9102) and antipERK1/2 (#9106) were purchased from Cell Signaling Technology (Danvers, Mass.). Anti-ER-α66 (RB-9016) was obtained from Thermoscientific (Rockford, Ill.). Anti-ER-α36 antibody was an affinity-purified rabbit polyclonal anti-ER-36 antibody generated as a custom service from Pacific Immunology Corp (Ramona, Calif.). The ER-α36 antibody was raised against a synthetic peptide antigen corresponding to the unique C-terminal 20 aa of ER-α36.
ER-α36 is mainly localized on the plasma membrane and mediates the non-genomic estrogen pathways (Wang et al., 2005, Biochem. Biophys. Res. Commun. 336:1023-7, Wang et al., 2006, Proc. Natl. Acad. Sci. U.S.A., 103:9063-8). We reasoned that the inhibition on ER-α36 expression by let-7 family miRNAs might dampen the non-genomic estrogen pathway. […]

[4] = test system: MCF7-Tam cells; assay: MTT cell proliferation assay with tamoxifen in MCF7-Tam; conditions: 1 μmol/L tamoxifen
Method: MCF7-Tam cells were transfected with let-7 mimics or negative control in normal growth medium for 1 day, or in medium with 2.5% charcoal-stripped FBS for 2 days to exhaust endogenous estrogen. Ten thousand cells in the volume of 100 μL were seeded in a 96-well plate for 12 hours and assay lasted for another 4 days. For tamoxifen treatment, 1 μmol/L tamoxifen was added to each well of 96-well plate. Each treatment had 12 replicates on the plate. Medium volume was increased to 200 μL after the assay began. The cells were then incubated in 0.83 mg/mL 3-[4,5-dimethylthiazol-2-yl]-2,5-diphenyltetrazolium bromide (MTT) in growth medium at 37° C. for 4 hours and lysed in 100 μL of dimethyl sulfoxide at room temperature for 15 minutes. The absorbance in each well was measured at […] with an ELx800 Absorbance Microplate Reader (Biotek, Winooski, Vt.). Cell growth was expressed as a fraction of absorbance at day 0.

[5] = MCF7-Tam, 6 days after transfection, vs negative control
[6] = MCF7-Tam, two days after transfection
[7] = MDA-MB-231, after 2 days, vs negative control cells
[8] = E2 free medium (2.5% charcoal-stripped FBS)
[9] = complete (normal growth) medium with 10% FBS

Row | Substance | increase of let-7 level after mimic transfection [1, 5] [fold] | increase of let-7 level after mimic transfection [1, 6] [fold] | increase of let-7 level after mimic transfection [1, 7] [fold] | ER-α36 mRNA expression [2] | ER-α36 mRNA level [2] | estrogen induced activation of the ERK1/2 (nongenomic estrogen pathway) [3] | tamoxifen sensitivity / cell growth (MTT) with tamoxifen [4, 8] | tamoxifen sensitivity / cell growth (MTT) with tamoxifen [4, 9]
1 | let-7i: let-7i miRNA (mimic), 3′-UUGUCGUGUUUGAUGAUGGAGU-5′ (SEQ ID NO:14) (chemistry not given here; listed 3' to 5') | 100 | ~300 | ~200 | 30 % of the controls | inhibited | significantly inhibited | grew significantly slower; also recorded: significantly enhanced tamoxifen sensitivity | does not affect tamoxifen sensitivity
2 | let-7b: let-7b miRNA (mimic), 3′-UUGGUGUGUUGGAUGAUGGAGU-5′ (SEQ ID NO:8) (chemistry not given here; listed 3' to 5') | 100 | ~600 | ~400 | 30 % of the controls | inhibited | significantly inhibited | grew significantly slower; also recorded: significantly enhanced tamoxifen sensitivity | does not affect tamoxifen sensitivity
